Like-named read-outs stand apart in the source and are kept apart here.

The target of one data set is PARP5a (Homo sapiens (Human), UniProt O95271). Briefly: PARP fluorescence anisotropy binding assay, PARP5a. In general terms: Fluorescence polarisation rises when a labelled molecule tumbles more slowly, as on binding a larger partner.
Another data set relates to MDR1 and BCRP. In words: In vitro human transporter efflux (MDCK-MDR1-BCRP). Conditions: human, pH 7.4.
The next data set addresses PARP6 (Homo sapiens (Human), UniProt Q2NL67). Briefly: PARP fluorescence anisotropy binding assay, PARP6. How it is done: Recombinant full length GST tagged PARP6 protein was diluted to 160 nM with 50 mM Tris pH 8, 0.001% Triton X100, 10 mM MgCl2, 150 mM NaCl and incubated for four hours with an equivalent volume of 6 nM fluorescent probe diluted with 50 mM Tris pH 8, 0.001% Triton X100, 10 mM MgCI2, 150 mM NaCl. The final DMSO concentration of the probe was kept below 1% (v/v).
Fluorescence anisotropy of the probe when bound to the proteins was measured using a BMG Pherastar FSX® in the presence of test compounds or solvent control and the effect on anisotropy determined. % inhibition values for different test compound concentrations were calculated and fitted to a four parameter logistic plot in order to determine the IC50 value. Where necessary, the compound K, can be determined from the IC50 value using a Munson Rodbard equation defined in Anal Biochem. 1980 Sep. 1; 107(1):220-39 and is based on the known KD of the probe binding to the relevant PARP protein

Data set [1] can be described thus: Determination of Kpuu in rat. Type of data set: in vivo, Han Wistar rats. The settings on record: intravenous infusion; for Kp uu at 4 h: Han Wistar, rat, brain and plasma (unbound brain-to-plasma ratio), 2 µmols/kg/h; for Rat Kpuu: 4 h, brain/plasma unbound. The procedure: The fraction unbound was determined using the RED Device.
Compounds were prepared as 10 mM solutions in DMSO. […] If less than 9 test compounds were included then the addition volume of blank DMSO was added to make up volume to 40 uL.
Frozen plasma was thawed in a water bath at 37° C. Plasma was then centrifuged for 2 minutes at 4,000 rpm to remove clots and collect supernatant into a fresh tube. The pH of the plasma was checked and only used if within the range of pH 7 to pH 8. 3 μL of the working solution of each cassette was added to 597 μL of blank plasma and vortexed for 5 minutes at 1000 rpm. The final percent volume of organic solvent is 0.5% and the final concentration for test compound was 5 μM. Immediately transfer 50 μL of the spiked plasma suspension to a 96-well plate to act as T=0 control sample. The samples are treated the same as the samples after incubation. The remaining plasma is kept at 37° C. prior to starting the dialysis.
Place inserts open end up into the wells of the base plate. Add 300 μL of spiked plasma sample into the sample chamber, indicated by the red ring. Add 500 μL of phosphate buffer (pH 7.4) to the buffer chamber. Cover the unit with gas permeable lid and incubate for 18 hours at 37° C. at 300 rpm with 5% CO2 on an orbital shaker in the CO2 incubator. At the end of incubation, remove lid and pipette 50 μL of post-dialysis samples from both buffer and plasma chambers into separated 96-well plate for analysis, respectively.
Samples were matrix matched by adding 50 μL of blank rat plasma to the buffer samples and an equal volume of PBS to the collected plasma samples and vortexed to mix. 400 μL of acetonitrile containing an appropriate internal standard (IS) was added to precipitate protein and release compound and mixed by vortexing the plate for 10 minutes followed by centrifugation for 30 minutes at 4,000 rpm. 250 μL of the supernatant was transferred to new 96-well plates and centrifuged again (4,000 rpm, 30 minutes). 100 μL of the supernatant was then transferred to new 96-well plates and mixed with 100 μL of distilled water to each sample by vortex for 5 minutes at 1,000 rpm. Samples were analysed by LC-MS/MS and drug concentrations were determined vs a calibration curve produced from spiked blank plasma with a typical range of 1-7500 nM.
The % unbound was determined as % Unbound=(Conc. buffer chamber/Conc. plasma chamber)×100%. Fraction unbound=% unbound/100.
The principle for the method for the determination of volume unbound in brain slices has previously been published (Development of a High-Throughput Brain Slice Method for Studying Drug Distribution in the Central Nervous System; Fridén et al; Drug Metabolism and Disposition, 2009, 37 (6) 1226-1233). In brief:
Compound stock solutions were prepared in DMSO at the concentration of 10 mM. […] If less than 9 test compounds were included, then blank DMSO was added to make up volume to 40 uL. On the day of the experiment 4 ul was diluted in 40 mL ECF buffer to give a 100 nM solution of each test compounds which was then pre-warmed to 37° C. before the start of the incubation.
To prepare brain slices, rats weighing approximately 300 g were terminally anesthetised with isoflurane by inhalation, the brain carefully removed and immersed in ice-cold oxygenated ECF buffer. The rat brain was transferred to a dish containing ice-cold, 02 supplied ECF buffer and trimmed with razor before gluing to the tray of a microslicer with the brain placed with the back section surface down centrally on the tray. Ice cold ECF buffer was added to harden the glue and wet the brain. The tray was placed in the microslicer and using a suitable cutting speed, 100-400 μm were cut slices until the striatum area appeared. Four to six for each brain, 300 μm thick, coronal slices of striatum areas were cut and placed in ice cold 02 supplied buffer until incubation. Six slices were transferred to the incubation tray containing 40 mL pre warmed (37° C.) cassette mixture. […]

The target in a further data set is PARP1 (Homo sapiens (Human), UniProt P09874). In words: PARP fluorescence anisotropy binding assay, PARP1.
The target in a further data set is PARP2 (Homo sapiens (Human), UniProt Q9UGN5). In words: PARP fluorescence anisotropy binding assay, PARP2. The procedure: Recombinant full length PARP2 protein was diluted to 6 nM with 50 mM Tris pH 8, 0.001% Triton X100, 10 mM MgCl2, 150 mM NaCl and incubated for four hours with an equivalent volume of 2 nM fluorescent probe diluted with 50 mM Tris pH 8, 0.001% Triton X100, 10 mM MgCl2, 150 mM NaCl. The final DMSO concentration of the probe was kept below 1% (v/v).
Fluorescence anisotropy of the probe when bound to the proteins was measured using a BMG Pherastar FSX® in the presence of test compounds or solvent control and the effect on anisotropy determined. % inhibition values for different test compound concentrations were calculated and fitted to a four parameter logistic plot in order to determine the IC50 value.

The target in another data set is PARP3 (Homo sapiens (Human), UniProt Q9Y6F1). Briefly: PARP fluorescence anisotropy binding assay, PARP3.
In another data set the target is hERG (Homo sapiens (Human), UniProt Q12809). Briefly: hERG IC50.
Another data set relates to BRCA2 (−/−) DLD1 cells. In words: PARP proliferation assay (7 day compound dosing), BRCA2 (−/−) DLD1. Type of data set: cell-based. The settings on record: Homo sapiens, DLD-1, 168 h, read-out: BRCA2 −/− DLD-1 prolif. 7 d IC50. How it is done: DLD1 and BRCA2 (−/−) DLD1 cells were harvested to a density of 5000 cells/ml and 2.5E4 cells/ml respectively in complete media, 40 μL/well seeded into 384-well plates (Greiner, Kremsmunster, Austria; 781090) using a Multidrop Combi then incubated at 37° C., 5% CO2 overnight. Next day (Day 1) using a Multidrop Combi add sytox green (5ul, 2 uM) and saponin (10 ul, 0.25% stock) to a day 0 plate, seal the plate using a black adhesive lid and incubate for >3 h at it. Cells were imaged using Cell Insight (Thermo Fisher) fitted with a 4x objective. Test compounds are added using an Echo 555 and placed in incubator maintained at 37° C., 5% CO2 and incubated for 7 days. On Day 8 add sytox green (5ul, 2 uM) and then saponin (10 ul, 0.25% stock) to plates, seal the plate using a black adhesive lid and incubate for >3 h at it. Read all cells on the Cell Insight with 4× Objective. The rate of proliferation is determined in Genedata by assessing the total cell number output from the Cell Insight for Day 0 and Day 8 plates.

The subject of the next data set is U87MG xenograft. Type of data set: in vivo, female Nude mice. How it is done: U87MG cells (2.5 million in serum-free MEM medium) were implanted subcutaneously (SC) into the dorsal flank of female Nude mice (weight greater than 18 g). Tumours were measured (length x width) two times weekly by bilateral Vernier calliper measurements and tumour volume was calculated using elliptical formula (π/6×width×width×length). Animal bodyweight and tumour condition were monitored throughout the study. Mice were randomised into treatment groups when mean tumour volume reached approximately 0.2 cm^3.
Animals were treated orally (PO) from the day after the randomisation. Control animals were treated with vehicle (water/methane sulfonic acid (MSA) pH3-3.2) once daily for 10 days (QD×10). PARP inhibitor in water/MSA pH3-3.2 was dosed in the monotherapy and combination groups at 3 mg/kg QD×10 or QD×33, respectively. Temozolomide (TMZ) in OraPlus Perrigo was dosed in the monotherapy group at 25 mg/kg QD on days 1-5 and 29-33, and in monotherapy and combination group at 6.25 mg/kg QD on days 1-5 and 29-33.
Tumour growth inhibition from start of treatment was assessed by comparison of the mean change in tumour volume (TV) of the control and treated groups and represented as percent tumour growth inhibition (TGI, when tumour volume (TV) >starting TV) or tumour regression (reg, when TV<starting TV). Statistical significance was evaluated using a one-tailed t test. Statistical significance is indicated as follows: *p:0.05, **p:0.01, ***p:0.001.

Setting [2] is: TMZ 6.25 mg/kg QD on days 1-5 and 29-33, PO.
The mark [3] stands for this setting: TMZ 25 mg/kg QD on days 1-5 and 29-33, PO.

Sequence of PARP3 (Q9Y6F1 whole entry): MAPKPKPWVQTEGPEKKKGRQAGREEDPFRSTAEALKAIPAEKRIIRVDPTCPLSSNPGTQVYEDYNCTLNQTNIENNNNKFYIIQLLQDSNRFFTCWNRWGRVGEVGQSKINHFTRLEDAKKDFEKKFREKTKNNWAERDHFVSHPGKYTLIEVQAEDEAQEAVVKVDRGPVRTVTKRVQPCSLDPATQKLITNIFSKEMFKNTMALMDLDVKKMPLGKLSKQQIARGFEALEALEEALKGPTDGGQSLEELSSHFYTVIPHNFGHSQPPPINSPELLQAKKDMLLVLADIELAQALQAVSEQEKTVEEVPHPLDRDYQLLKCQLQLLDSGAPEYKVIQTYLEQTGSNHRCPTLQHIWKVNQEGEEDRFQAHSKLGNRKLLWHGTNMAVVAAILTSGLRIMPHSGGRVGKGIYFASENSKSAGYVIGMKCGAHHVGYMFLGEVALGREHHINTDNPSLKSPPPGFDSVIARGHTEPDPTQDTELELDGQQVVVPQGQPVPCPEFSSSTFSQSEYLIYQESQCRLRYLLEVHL
Sequence of PARP5a (O95271 1112-1317): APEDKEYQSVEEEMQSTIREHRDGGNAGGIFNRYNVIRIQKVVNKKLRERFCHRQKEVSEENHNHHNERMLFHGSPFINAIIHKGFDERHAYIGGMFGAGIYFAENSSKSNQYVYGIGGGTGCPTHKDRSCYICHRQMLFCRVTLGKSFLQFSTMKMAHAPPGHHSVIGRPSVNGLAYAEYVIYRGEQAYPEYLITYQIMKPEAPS
Sequence of PARP2 (Q9UGN5 whole entry): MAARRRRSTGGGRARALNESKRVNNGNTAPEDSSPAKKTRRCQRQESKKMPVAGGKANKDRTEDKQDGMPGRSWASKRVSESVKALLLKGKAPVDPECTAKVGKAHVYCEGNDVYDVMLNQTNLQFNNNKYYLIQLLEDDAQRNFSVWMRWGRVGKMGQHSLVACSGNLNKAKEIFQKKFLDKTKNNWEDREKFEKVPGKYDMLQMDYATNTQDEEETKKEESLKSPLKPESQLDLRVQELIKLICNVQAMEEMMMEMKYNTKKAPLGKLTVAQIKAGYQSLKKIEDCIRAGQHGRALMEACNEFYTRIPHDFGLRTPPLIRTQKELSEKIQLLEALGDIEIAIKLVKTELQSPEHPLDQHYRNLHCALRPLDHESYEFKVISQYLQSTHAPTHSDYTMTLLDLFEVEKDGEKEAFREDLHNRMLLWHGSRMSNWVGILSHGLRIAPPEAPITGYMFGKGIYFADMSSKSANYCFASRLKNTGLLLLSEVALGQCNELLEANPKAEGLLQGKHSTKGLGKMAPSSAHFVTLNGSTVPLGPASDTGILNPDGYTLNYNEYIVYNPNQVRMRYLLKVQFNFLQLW
Sequence of PARP1 (P09874 whole entry): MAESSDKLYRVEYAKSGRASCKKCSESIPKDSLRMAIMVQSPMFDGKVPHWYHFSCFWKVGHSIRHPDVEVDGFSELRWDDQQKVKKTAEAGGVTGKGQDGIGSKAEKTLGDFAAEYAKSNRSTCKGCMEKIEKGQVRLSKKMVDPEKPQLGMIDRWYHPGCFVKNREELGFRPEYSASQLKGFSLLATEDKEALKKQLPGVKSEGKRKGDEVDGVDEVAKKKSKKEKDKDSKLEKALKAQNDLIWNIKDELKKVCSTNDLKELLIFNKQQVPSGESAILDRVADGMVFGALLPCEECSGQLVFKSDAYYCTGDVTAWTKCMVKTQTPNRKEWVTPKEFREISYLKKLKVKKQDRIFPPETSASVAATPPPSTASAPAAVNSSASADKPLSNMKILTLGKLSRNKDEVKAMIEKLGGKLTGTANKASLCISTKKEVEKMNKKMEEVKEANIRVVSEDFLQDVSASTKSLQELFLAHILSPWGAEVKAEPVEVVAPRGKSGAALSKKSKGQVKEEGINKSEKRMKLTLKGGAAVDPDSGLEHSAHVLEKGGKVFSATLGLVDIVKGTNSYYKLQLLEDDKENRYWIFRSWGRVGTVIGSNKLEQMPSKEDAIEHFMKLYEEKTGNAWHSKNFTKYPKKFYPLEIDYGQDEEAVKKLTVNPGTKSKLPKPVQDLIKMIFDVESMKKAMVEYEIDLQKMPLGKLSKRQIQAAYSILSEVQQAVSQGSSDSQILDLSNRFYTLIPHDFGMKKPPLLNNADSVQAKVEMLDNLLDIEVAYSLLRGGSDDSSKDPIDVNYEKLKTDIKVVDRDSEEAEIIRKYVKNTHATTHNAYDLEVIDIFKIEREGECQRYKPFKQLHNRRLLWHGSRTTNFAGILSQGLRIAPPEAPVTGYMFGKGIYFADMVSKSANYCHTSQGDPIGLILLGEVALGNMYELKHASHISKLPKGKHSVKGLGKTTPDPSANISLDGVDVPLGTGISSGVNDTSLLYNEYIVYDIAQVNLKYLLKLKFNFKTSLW
Sequence of PARP6 (Q2NL67 whole entry): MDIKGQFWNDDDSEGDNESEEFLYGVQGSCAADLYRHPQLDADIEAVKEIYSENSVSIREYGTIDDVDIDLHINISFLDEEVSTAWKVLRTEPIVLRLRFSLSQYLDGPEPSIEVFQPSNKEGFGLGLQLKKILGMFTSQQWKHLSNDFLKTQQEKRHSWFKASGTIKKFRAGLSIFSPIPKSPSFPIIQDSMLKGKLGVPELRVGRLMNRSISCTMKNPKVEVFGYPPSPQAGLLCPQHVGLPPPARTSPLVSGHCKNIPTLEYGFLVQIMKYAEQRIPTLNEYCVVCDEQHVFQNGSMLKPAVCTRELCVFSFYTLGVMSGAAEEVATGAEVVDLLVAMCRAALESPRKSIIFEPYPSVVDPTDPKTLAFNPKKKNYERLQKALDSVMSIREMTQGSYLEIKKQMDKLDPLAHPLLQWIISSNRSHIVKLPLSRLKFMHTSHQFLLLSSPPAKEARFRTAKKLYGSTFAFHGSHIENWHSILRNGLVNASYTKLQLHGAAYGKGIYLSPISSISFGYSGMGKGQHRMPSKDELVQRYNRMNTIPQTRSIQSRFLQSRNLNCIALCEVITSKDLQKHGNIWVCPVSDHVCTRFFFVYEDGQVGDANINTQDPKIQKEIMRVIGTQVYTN
Sequence of hERG (Q12809 whole entry): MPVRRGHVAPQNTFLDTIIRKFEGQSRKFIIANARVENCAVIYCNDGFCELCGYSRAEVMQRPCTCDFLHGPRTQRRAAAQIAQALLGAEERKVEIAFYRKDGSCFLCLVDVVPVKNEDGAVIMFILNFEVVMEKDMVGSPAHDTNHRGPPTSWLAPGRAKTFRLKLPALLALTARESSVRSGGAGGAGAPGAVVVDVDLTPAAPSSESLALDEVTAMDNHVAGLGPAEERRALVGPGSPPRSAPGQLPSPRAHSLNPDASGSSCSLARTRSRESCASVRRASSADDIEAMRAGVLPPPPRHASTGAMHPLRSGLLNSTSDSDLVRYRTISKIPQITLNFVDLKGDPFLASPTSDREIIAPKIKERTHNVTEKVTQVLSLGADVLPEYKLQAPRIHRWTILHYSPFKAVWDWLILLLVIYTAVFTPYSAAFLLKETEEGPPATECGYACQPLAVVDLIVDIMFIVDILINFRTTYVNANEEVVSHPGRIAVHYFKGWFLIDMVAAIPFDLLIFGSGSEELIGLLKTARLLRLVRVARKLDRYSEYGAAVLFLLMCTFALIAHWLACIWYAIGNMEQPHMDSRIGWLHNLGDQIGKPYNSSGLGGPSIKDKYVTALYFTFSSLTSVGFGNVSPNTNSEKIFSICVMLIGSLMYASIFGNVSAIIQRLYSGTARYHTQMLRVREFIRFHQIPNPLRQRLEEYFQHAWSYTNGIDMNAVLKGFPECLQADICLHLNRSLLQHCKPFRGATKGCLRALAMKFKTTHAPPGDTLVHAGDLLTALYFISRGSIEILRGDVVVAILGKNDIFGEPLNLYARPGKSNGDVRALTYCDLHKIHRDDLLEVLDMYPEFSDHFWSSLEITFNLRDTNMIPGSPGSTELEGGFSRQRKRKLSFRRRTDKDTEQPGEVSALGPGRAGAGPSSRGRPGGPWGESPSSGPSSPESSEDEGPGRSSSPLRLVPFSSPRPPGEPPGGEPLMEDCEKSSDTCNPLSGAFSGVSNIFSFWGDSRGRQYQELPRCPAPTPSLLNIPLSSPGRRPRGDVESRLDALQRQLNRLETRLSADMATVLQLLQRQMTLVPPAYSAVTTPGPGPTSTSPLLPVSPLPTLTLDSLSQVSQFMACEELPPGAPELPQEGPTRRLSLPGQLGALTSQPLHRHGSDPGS
Procedure for MDR1 and BCRP: MDCKII cells expressing MDR1 and BCRP were seeded onto polyethylene membranes in 96-well Transwell insert systems at a density to form a confluent cell monolayer. […] The final percent volume of the organic solvent was less than 1%. Permeation of the test compounds from A to B direction and from B to A direction was determined over a 90-min incubation at 37° C. and 5% CO2 with a relative humidity of 95%. At the end of the incubation, samples from the apical and basolateral side were taken and then precipitated with cold acetonitrile containing internal standard. After centrifugation at 4000 rpm, the supernatant was diluted with 0.1% formic acid aqueous solution and quantified by LC-MS/MS. The integrity of the cell monolayers was confirmed by using the marker Lucifer yellow.
The permeability coefficient (1×10-6 cm/s) was calculated using the following equation
(1) The Efflux Ratio was Calculated Using the Following Equation
Efflux ratio=Papp(B to A)/Papp(A to B)
(2) where dCr/dt is the cumulative concentration of the compound in the receiver chamber as a function of time (in μM/s); Vr is the solution volume in the receiver chamber (0.1 ml on the apical side and 0.3 ml on the basolateral side); A is the surface area for the transport, that is, 0.11 cm2 for the area of the monolayer; and C0 is the initial concentration in the donor chamber (in μM).
Procedure for PARP1: Recombinant full length 6HIS tagged PARP1 protein was diluted to 6 nM with 50 mM Tris pH 8, 0.001% Triton X100, 10 mM MgCl2, 150 mM NaCl and incubated for four hours with an equivalent volume of 2 nM fluorescent probe diluted with 50 mM Tris pH 8, 0.001% Triton X100, 10 mM MgCl2, 150 mM NaCl. The final DMSO concentration of the probe was kept below 1% (v/v).
Procedure for PARP3: Recombinant full length PARP3 protein was diluted to 100 nM with 50 mM Tris pH 8, 0.001% Triton X100, 10 mM MgCl2, 150 mM NaCl and incubated for four hours with an equivalent volume of 6 nM fluorescent probe diluted with 50 mM Tris pH 8, 0.001% Triton X100, 10 mM MgCl2, 150 mM NaCl. The final DMSO concentration of the probe was kept below 1% (v/v).
Procedure for PARP5a: Recombinant PARP5a binding domain was diluted to 160 nM with 50 mM Tris pH 8, 0.001% Triton X100, 10 mM MgCl2, 150 mM NaCl and incubated for four hours with an equivalent volume of 6 nM fluorescent probe diluted with 50 mM Tris pH 8, 0.001% Triton X100, 10 mM MgCl2, 150 mM NaCl. The final DMSO concentration of the probe was kept below 1% (v/v).

The efflux ratio is the permeability from basolateral to apical divided by that in the opposite direction, in the common usage. Turning to `CNC(=O)c1ccc(N2CCN(Cc3ccc4nc(C)c(=O)[nH]c4c3C)CC2)c(F)n1` [Example 1, 5-[4-[(2,5-dimethyl-3-oxo-4H-quinoxalin-6-yl)methyl]piperazin-1-yl]-6-fluoro-N-methyl-pyridine-2-carboxamide], the IC50 at PARP5a was greater than 100 µM; on PARP6, greater than 100 µM; at PARP1, 0.004 µM; on PARP2, greater than 70 µM; at PARP3, greater than 100 µM. Besides, the efflux ratio at 90 min with MDR1 and BCRP worked out at 0.7. Moreover, in data set [1], the Kp uu at 4 h amounted to 0.07.
Consider `CNC(=O)c1ccc(N2CCN(Cc3ccc4nc(C)c(=O)[nH]c4c3C)CC2)c(C)n1` [Example 4, 5-[4-[(2,5-dimethyl-3-oxo-4H-quinoxalin-6-yl)methyl]piperazin-1-yl]-N,6-dimethyl-pyridine-2-carboxamide], for which the IC50 on PARP5a is greater than 100 µM; on PARP6, greater than 100 µM; at PARP1, 0.005 µM; on PARP2 it was greater than 83 µM; at PARP3, 78 µM. In addition, in the data set on MDR1 and BCRP, the efflux ratio at 90 min was found to be 0.8. In [1], the Kp uu at 4 h was found to be 0.13.
As to `CNC(=O)c1ccc(N2CCN(Cc3ccc4nc(C)c(=O)[nH]c4c3Cl)CC2)c(C)n1` [Example 18, 5-[4-[(5-chloro-2-methyl-3-oxo-4H-quinoxalin-6-yl)methyl]piperazin-1-yl]-N,6-dimethyl-pyridine-2-carboxamide], the IC50 against hERG amounted to 14 µM; at PARP1, 0.005 µM.
As to `CCc1nc2ccc(CN3CCN(c4ccc(C(=O)NC)nc4C)CC3)c(F)c2[nH]c1=O` [Example 23, 5-[4-[(2-ethyl-5-fluoro-3-oxo-4H-quinoxalin-6-yl)methyl]piperazin-1-yl]-N,6-dimethyl-pyridine-2-carboxamide], the IC50 is greater than 100 µM at PARP5a; greater than 100 µM at PARP6; 0.005 µM on PARP1; greater than 67 µM on PARP2; greater than 100 µM at PARP3. Also, the efflux ratio at 90 min with MDR1 and BCRP came out at 0.8. Moreover, in data set [1], the Kp uu at 4 h is 0.62.
Consider `CCc1nc2ccc(CN3CCN(c4ccc(C(=O)NC)nc4F)CC3)c(F)c2[nH]c1=O` [Example 27, 5-[4-[(2-ethyl-5-fluoro-3-oxo-4H-quinoxalin-6-yl)methyl]piperazin-1-yl]-6-fluoro-N-methyl-pyridine-2-carboxamide], for which the IC50 on PARP5a, on PARP6 and at PARP3 was greater than 100 µM each time. Moreover, the “Rat Kpuu” value in [1] is given as 0.43.
On to `CCc1nc2ccc(CN3CCN(c4ccc(C(=O)NC)nc4)CC3)c(F)c2[nH]c1=O` [Example 29, 5-[4-[(2-ethyl-5-fluoro-3-oxo-4H-quinoxalin-6-yl)methyl]piperazin-1-yl]-N-methyl-pyridine-2-carboxamide], for which the IC50 on PARP5a is greater than 100 µM; on PARP6, greater than 100 µM; at PARP1, 0.015 µM; at PARP2, greater than 100 µM; on PARP3 it was greater than 100 µM. In addition, the efflux ratio at 90 min in the data set with MDR1 and BCRP was 0.7. Besides, the Kp uu at 4 h in data set [1] stood at 0.33.
Consider `CNC(=O)c1ccc(N2CCN(Cc3ccc4nc(C)c(=O)[nH]c4c3F)CC2)c(C)n1` [Example 31, 5-[4-[(5-fluoro-2-methyl-3-oxo-4H-quinoxalin-6-yl)methyl]piperazin-1-yl]-N,6-dimethyl-pyridine-2-carboxamide], for which the IC50 was greater than 100 µM at PARP5a; greater than 100 µM on PARP6; 0.007 µM in the data set on BRCA2 (−/−) DLD1 cells; 0.007 µM on PARP1; greater than 100 µM on PARP2; greater than 100 µM on PARP3. In the data set with MDR1 and BCRP, the efflux ratio at 90 min is 1.6. The “Rat Kpuu” value in [1] amounted to 0.19.
For the compound `Cn1nnc2c(C(N)=O)ncn2c1=O` [TMZ, Temozolomide], in the data set on U87MG xenograft (setting [2]), the tumour regression came out at 28% and the tumours regressed is listed as 2/8. In the data set with U87MG xenograft (setting [3]), the tumour regression is 92% and the tumours regressed is listed as 7/8.
